# Laboratory results as given in US20140323757A1, “Biosurfactant Isolated from Yeast” (Gyeongbuk Institute of Marine Bio-industry, priority 2013, published 2014).
# Assay: Surface tension measurement
# Assay type: physicochemical
# Parameters: unit not given here
# Conditions: at 1.5 mg/L
# Text: Surface tension is increased in proportion to molecular interaction, and hydrocarbons or organic polymers show low surface tension due to their weak molecular interaction. Surface tension is represented by N/m. Since surfactants have hydrophobic and hydrophilic groups, when added to water, its surface tension is lowered. […] The compounds represented by […]
row,SMILES,Surface Tension
1,"CCCCCC(=O)OC1C(O)C(O)C(O)C(O)C1OC(=O)CCCCC (single isomer, unassigned) [Compound A57-4-gly-2]",22.40
2,CCCCCC(=O)OC1C(O)C(O)C(O)C(OC(=O)CCCCC)C1OC(=O)CCCCC (centres unmarked) [Compound A57-4-gly-4],25.28

# The remaining lines, values ahead:
row,Surface Tension,SMILES
1,22.44,"CCCCCC(=O)OC1C(O)C(O)C(O)C(O)C1OC(=O)CCCCC (single isomer, unassigned) [Compound A57-4-gly-5]"
2,22.90,CCCCCC(=O)OC1C(O)C(O)C(O)C(OC(C)=O)C1OC(=O)CCCCC (centres unmarked) [Compound A57-4-gly-1]
3,28.71,CCCCCC(=O)OC1C(O)C(O)C(O)C(OC(=O)CCCCC)C1OC(C)=O (centres unmarked) [Compound A57-4-gly-3]
